Experiment: xn = mol fraction of the nth substance listed
Conditions: 310.95 K; for viscosity: Capillary tube (Ostwald / Ubbelohde) method; for mass density: Vibrating tube method

CCCC [butane] + C
Gas, x2 = 0.736
Conditions | mass density [kg/m3] | viscosity [mPa·s]
13790 kPa | 265 | 0.0305
20680 kPa | 329 | 0.0406

C [methane] + CCCCCCCCCC
Conditions | viscosity [mPa·s]
34610 kPa, Gas, x1 = 0.9514 | 0.0386
34610 kPa, Liquid, x1 = 0.8064 | 0.12
35160 kPa, Gas, x1 = 0.9514 | 0.0396
35160 kPa, Liquid, x1 = 0.8064 | 0.12
35850 kPa, Gas, x1 = 0.9514 | 0.0403
35850 kPa, Liquid, x1 = 0.8064 | 0.121
36230 kPa, Liquid, x1 = 0.8609 | 0.105
36300 kPa, Liquid, x1 = 0.8609 | 0.102
36370 kPa, Liquid, x1 = 0.8609 | 0.1
36540 kPa, Gas, x1 = 0.9514 | 0.041
36540 kPa, Liquid, x1 = 0.8064 | 0.122
36540 kPa, Liquid, x1 = 0.8609 | 0.096
36890 kPa, Liquid, x1 = 0.8609 | 0.095
37230 kPa, Gas, x1 = 0.9514 | 0.0416
37230 kPa, Liquid, x1 = 0.8064 | 0.123
37230 kPa, Liquid, x1 = 0.8609 | 0.095
37580 kPa, Liquid, x1 = 0.8609 | 0.095
37920 kPa, Gas, x1 = 0.9514 | 0.042
37920 kPa, Liquid, x1 = 0.8064 | 0.124
37920 kPa, Liquid, x1 = 0.8609 | 0.096

— the NIST ThermoML archive (doi:10.1016/j.fluid.2005.03.032)
